“Also recorded” adds a separate entry of the source.
Legend:
chondrocytes = conditions: low millimolar concentrations; cited from earlier work
[1] = tested on: articular cartilage of rabbits with ACLT (experimental OA); experiment: Histological grading of articular cartilage, ACLT rabbits, intra-articular injections; assay type: in vivo, New Zealand White rabbits; conditions: N = 6; for Sulfated glycosaminoglycan loss, histological grade: grade 1-3 by loss of Safranin O staining, intra-articular 80 mg twice per week for 7 weeks; for Impairment of cartilage surface integrity, histological grade: grade 1 intact to 3 full thickness defect, intra-articular
Method: (§1) Anterior cruciate ligament transection (ACLT). Unilateral or bilateral ACLT was performed as indicated for each set of experiments. ACLT was performed using a medial arthrotomy technique (Yoshioka et al. Osteoarthritis Cartilage 1996; 4:87-98). After dislocating the patella laterally, the ACL was transected with a sharp blade. Complete transection was confirmed by a manual anterior drawer test The knee joints were irrigated with sterile saline and closed in layers with sutures. All animals were maintained individually with ad libitum activity. The animals were sacrificed 8 weeks after the surgery.
(§2) Intra-articular injections of GlcNAc. Intra-articular injections of GlcNAc started one week post-operatively for a period of seven weeks. Rabbits were injected twice per week with GlcNAc in a volume of 0.3 ml per knee joint The single dose of GlcNAc per injection was 80 mg. Control animals were injected twice per week intra-articularly with normal saline (0.3 ml per joint). The third group of rabbits received intra-articular injections of hyaluronan (0.3 ml per joint) twice per week for seven weeks starting one week after the ACL transection. Synovial fluid analysis was performed in 3 animals that developed gross synovial effusions (2 animals in the control group and 1 animal in the hyaluronan group). In all three animals synovial fluid was culture negative.
(§3) Histological grading of the knee joints. Distal femur and proximal tibia from the rabbit knee joints were fixed in 10% buffered formalin, decalcified in TBD-2 decalcifier (ThermoShandon, Pittsburg, Calif.) and embedded in paraffin blocks. Sagittal sections of lateral and medial femoral condyles, and coronal sections of tibial plateaus were used for further histological analysis.
The assessment of sulfated glycosaminoglycan (SGAG) content was performed after staining of the tissue sections with Safranin O/Fast Green.
The following grading system was used for assessing SGAG content: Grade 1—Less than 25% loss of Safranin O staining, Grade 2—25-50% loss of Safranin O staining; Grade 3—More than 50% loss of Safranin O staining;
The following grading system was used for assessing cartilage integrity: Grade 1—Intact cartilage surface; Grade 2—Presence of fibrillations; Grade 3—Full thickness cartilage defect. In addition, all tissue samples were analyzed for the presence of chondrocyte proliferation or cloning.

[2] = tested on: synovium of rabbits with ACLT (experimental OA); experiment: Histological grading of synovium, ACLT rabbits, intra-articular injections; assay type: in vivo, New Zealand White rabbits
Method: as §1, §2, §3
Histological assessment of synovium was based on the presence of synovial proliferation and synovial neoangiogenesis, and it was performed separately for the synovium attached to the tibial plateaus, lateral, and medial femoral condyles.

[3] = tested on: subchondral bone marrow of rabbits with ACLT (experimental OA); experiment: Histological grading of subchondral bone marrow, ACLT rabbits, intra-articular injections; assay type: in vivo, New Zealand White rabbits
Method: as §1, §2, §3
Microscopic assessment of bone marrow was based on the presence of subchondral bone marrow hypercellularity and increased vascularization as shown in Table 3.

[4] = tested on: femoral condyles and tibial plateaus of rabbits with ACL transection; experiment: Gross morphological assessment and digital imaging of articular cartilage, ACLT rabbits, intra-articular injections; assay type: in vivo, New Zealand White rabbits; conditions: for Gross morphological analysis of the femoral condyles: FIG. 2
Method: as §1, §2
Gross morphological assessment of the articular cartilage. The distal femur and proximal tibia were harvested keeping a 3.5 cm to 4 cm shaft of the bones. The articular cartilage surface of each specimen was covered with a solution consisting of India ink (Eberhard Faber, Lewisburg, Tenn.) in PBS (1:5 ratio). Excess ink solution was removed by gentle blotting with a tissue that was pre-moistened with PBS. Subsequently, all joints were photographed and digital images were analyzed.
Digital imaging. Articular surfaces of femoral condyles and tibial plateaus were gently blotted dry and cleaned of loose tissue. Each femoral shaft was clamped to an optical bench. An image (resolution: 60 pixels per mm; onscreen magnification: 20×) of the femoral condyles was obtained using a Canon EOS D30 digital camera with a 100 mm macro lens at a distance of approximately 12 cm. A millimeter scale was included in the photograph to accurately scale the image. The scaled image was then projected onto a 3D model of the femoral condyles. The 3D surface area of the lesion was measured by interactively plotting the margins of the lesion. A digital image of articular surface of the tibia was obtained as described above.

[5] = tested on: knee joints of rabbits with ACL transection; experiment: Gross morphological assessment of joint swelling and synovial effusion, ACLT rabbits, intra-articular injections; assay type: in vivo, New Zealand White rabbits; conditions: FIG. 4
Method: as §1, §2
(§4) Gross morphological assessment of the knee joints. Gross morphological assessment of the knee joints included assessment of joint swelling, synovial effusion, macroscopic articular cartilage morphology of tibial plateaus and femoral condyles, and assessment of the menisci.
The following grading system was used to assess joint swelling: Grade 0-normal; Grade 1 (mild swelling)—mild inflammation and/or proliferation of the joint capsule; Grade 2 (moderate swelling)—thickening of joint capsule and/or inflammation of the synovium; Grade 3 (severe swelling)—abundant inflammation of the synovium, swelling of the menisci or ligaments (anterior cruciate ligament or posterior cruciate ligament).

[6] = tested on: synovial tissue of rabbits with ACL transection; experiment: DNA content in synovial tissue, ACLT rabbits, intra-articular injections; assay type: in vivo, New Zealand White rabbits; conditions: FIG. 5
Method: as §1
Intra-articular injections of GlcNAc. Intra-articular injections of GlcNAc started one week post-operatively for a period of seven weeks. Rabbits were injected twice per week with GlcNAc in a volume of 0.3 ml per knee joint The single dose of GlcNAc per injection was 80 mg. Control animals were injected twice per week intra-articularly with normal saline (0.3 ml per joint). […]
Measurement of DNA content in synovial tissue. Synovial tissue cellularity was assessed by quantitating the tissue concentration of DNA (Amiel et. al. J Orthop Res 1986; 4:162-172). […] The aqueous phase containing the DNA was harvested, and the absorbance was measured at […]. […] Results were expressed as mg DNA per mg of dry tissue.

[7] = tested on: rabbits with bilateral anterior cruciate ligament transection (ACLT); experiment: Intra-muscular GlcNAc in rabbits with bilateral ACLT, gross morphological grading; assay type: in vivo, New Zealand White rabbits
Method: as §1
Intra-muscular injections of GlcNAc. Intra-muscular injections of GlcNAc were performed three times per week starting one week postoperatively for a period of seven weeks. The dose of GlcNAc was 200 mg/kg per injection. The control group of received the same number of intra-muscular injections of normal saline.
as §4
Gross morphological assessment of the articular cartilage. […] Subsequently, all joints were photographed and digital images were analyzed.

[8] = Continuous delivery of GlcNAc to the joint (sustained release and alzet pump methods); conditions: after a single intra-articular administration
Method: Release of GlcNAc from formulations incubated in phosphate buffered saline. An in vitro release study was performed in phosphate buffered saline to evaluated release kinetics under physiological conditions. Each sustained release formulation (100 μl) was placed in 1.0 mL of phosphate buffered saline and then incubated at 37° C. At different time points, the formulation matrix was separated by removing the phosphate buffered saline bathing solution with a pipet. The resulting solutions were analyzed by UV detection after GlcNAc derivatives were formed by methods previously described (Reissig et. al. J. Biol. Chem. 1955 217: 959-966). The formulation matrix was then re-suspended in 1.0 mL phosphate buffered saline and incubated under the same conditions as described above.
Alzet Pump Administration of GlcNAc. New Zealand White rabbits, 3.0-3.5 kg, were used in this experiment. They were randomly allocated into five groups, each group having 8 rabbits. Group A was treated with saline (negative control group); Group B was treated with 1.5 M GlcNAc group; Group C was treated with 0.5 M GlcNAc group; Group D was treated with 0.15 M GlcNAc group; Group E was treated with 0.05 M GlcNAc group. All compounds were continuously delivered to the joints by Alzet mini pumps. The delivery rate for this pump was 2.5 μl/hour. […]

[9] = tested on: human articular chondrocytes; conditions: cited from earlier work

N[C@H]1C(O)O[C@H](CO)[C@@H](O)[C@@H]1O (stereo partly drawn) [GlcN, glucosamine]
Cytotoxicity for chondrocytes (chondrocytes): cytotoxic for chondrocytes at low millimolar concentrations

CC(=O)N[C@H]1C(O)O[C@H](CO)[C@@H](O)[C@@H]1O (stereo partly drawn) [GlcNAc, N-Acetylglucosamine]
Sulfated glycosaminoglycan loss, histological grade ([1]; Lateral femoral condyle, saline 2.43 ± 0.53, P ≦ 0.03): 1.50 ± 0.83
Impairment of cartilage surface integrity, histological grade ([1]; Lateral femoral condyle, saline 2.00 ± 1.00, P ≦ 0.17): 1.33 ± 0.51
Sulfated glycosaminoglycan loss, histological grade ([1]; Medial femoral condyle, saline 1.57 ± 0.53, P ≦ 0.4): 1.66 ± .33
Impairment of cartilage surface integrity, histological grade ([1]; Medial femoral condyle, saline 1.66 ± 0.41, P ≦ 0.91): 1.66 ± 0.81
Sulfated glycosaminoglycan loss, histological grade ([1]; Tibial plateau, saline 1.71 ± 0.76, P ≦ 0.14): 1.16 ± 0.40
Impairment of cartilage surface integrity, histological grade ([1]; Tibial plateau, saline 1.71 ± 0.49, P ≦ 0.05): 1.16 ± 0.41
Synovial neoangiogenesis, animals with finding / animals ([2]; Lateral femoral condyle, N = 6, saline 4/7, P ≦ 0.16): 1/6
Synovial thickening/proliferation, animals with finding / animals ([2]; Lateral femoral condyle, N = 6, saline 7/7, P ≦ 0.006): 2/6
Synovial neoangiogenesis, animals with finding / animals ([2]; Medial femoral condyle, N = 6, saline 5/7, P ≦ 0.05): 1/6
Synovial thickening/proliferation, animals with finding / animals ([2]; Medial femoral condyle, N = 6, saline 7/7, P ≦ 0.006): 2/6
Synovial neoangiogenesis, animals with finding / animals ([2]; Tibial plateau, N = 6, saline 4/7, P ≦ 0.16): 1/6
Synovial thickening/proliferation, animals with finding / animals ([2]; Tibial plateau, N = 6, saline 7/7, P ≦ 0.0002): 1/6
Subchondral bone marrow hypercellularity and increased vascularization, animals with finding / animals ([3]; Lateral femoral condyle, N = 6, saline 3/7, P ≦ 0.07): 0/6
Subchondral bone marrow hypercellularity and increased vascularization, animals with finding / animals ([3]; Medial femoral condyle, N = 6, saline 3/7, P ≦ 0.07): 0/6
Subchondral bone marrow hypercellularity and increased vascularization, animals with finding / animals ([3]; Tibial plateau, N = 6, saline 3/7, P ≦ 0.35): 1/6
Surface areas of the cartilage lesions (digital image analysis) ([4]; femoral condyles and tibial plateaus, intra-articular GlcNAc versus hyaluronan group, FIGS. 6a and 6b): greatly reduced
Gross morphological analysis of the femoral condyles ([4]; intra-articular GlcNAc versus intra-articular hyaluronan group (n=7)): no significant difference
Chondroprotective activity, gross morphology of tibial plateaus ([4]; intra-articular GlcNAc versus intra-articular hyaluronan, p<0.01, FIG. 3): significantly greater
Gross morphological analysis of the femoral condyles ([4]; intra-articular, two times per week for seven weeks, n=7, versus saline control): trend towards improved cartilage condition
Rabbits that developed a cartilage lesion on the tibial plateaus ([4]; intra-articular, two times per week for seven weeks, control group 6 of 7, p<0.003, FIG. 3): 1 of 7
Synovial effusion ([5]; intra-articular GlcNAc versus hyaluronan group): no significant difference
Joint swelling ([5]; intra-articular, versus saline): does not significantly affect
Synovial effusions ([5]; intra-articular, versus saline): does not significantly affect
DNA content assessment of synovial tissue ([6]; intra-articular GlcNAc versus hyaluronan group, p<0.05): significant reduction in synovial hyperplasia and cellularity
DNA content in synovial tissue ([6]; intra-articular, versus saline): does not significantly affect
Degree of cartilage damage, gross morphological analysis of tibial plateaus and femoral condyles ([7]; intra-muscular 200 mg/kg three times per week for seven weeks, 6 rabbits versus 6 saline controls, FIGS. 1a and 1b): did not reveal a statistically significant difference
Synovitis ([7]; intra-muscular GlcNAc): trend towards reduction of synovitis; also recorded: significant reduction of synovitis
Duration of continuous delivery to the joint [8]: more than three weeks
Concentration that does not induce chondrocyte cell death [9]: higher than 50 mM

From US20070142326A1, “Treatment of a condition in a mammal with administration of aminosugar and uses thereof” (priority 2004, published 2007)
